For one data set, the system named is TLR7 signaling. In words: TNFα mRNA in BMDM stimulated with R848. It is filed as cell-based, mouse. Particulars: peptide 40 μM; R848 2.85 μM; 1 h. Here is the method: (§1) The cDNA obtained was amplified with gene-specific primers for mouse HPRT, TNFα, IL-10, IL-12-p40, or IL-6 and Fast SYBR Green™ master mix (Applied Biosystemsm) as previously described.
(§2) CPDPs 9R34 and 9R11 were examined for inhibition of TLR1/2, TLR4, and TLR7 signaling. BMDMs were stimulated with Pam3C, E. coli LPS, or R848 and TNFαmRNA was measured 1 hour after stimulation. Mouse BMDM were treated with 40 μM of the indicated peptides for 30 minutes prior to stimulation with ODN 1668 (1 μM), E. coli LPS (0.1 μg/mL), R848 (2.85 μM), or P3C (0.33 μM). R848 and P3C were used to specifically activate TLR7 and TLR2 signaling, respectively. TNFαmRNA expression was measured 1 h after ODN 1668 challenge and normalized to the expression of HPRT. See results in FIG. 8A, FIG. 8B, and FIG. 8C. […] The statistical significance of changes was determined by a one-way ANOVA test; *p<0.01.

In data set [1] the test system is TLR9 signaling. Briefly: TNFα mRNA in BMDM at varying ODN 1668 concentration, comparison with INH-18. The conditions noted are these: inhibitor 30 min before varying ODN 1668, 1 hour. Format: cell-based, mouse. Here is the method: To investigate inhibition of TLR9 signaling by 9R34 further, the following work was conducted. Mouse BMDMs were treated with the effective dose of either INH-18 (an ODN-based, competitive inhibitor of TLR9, commercially available through Invivogen™) or 9R34, 30 minutes prior to stimulation with varying concentration of ODN 1668. TNFα mRNA expression was measured 1 hour after ODN 1668 challenge and normalized to the expression of HPRT.

The subject of the next data set is myDDosome. Particulars: BMDM pretreated with CPDP; MyD88 IP, IRAK4 blot. As for the experimental part:
Four million BMDMs per well were plated in 6-well plates and treated with CPDP for 30 minutes prior to stimulation with ODN 1668 for 90 minutes. Cells were lysed in 600 p L of buffer containing 20 mM HEPES (pH 7.4), 150 mM NaCl, 10 mM NaF, 2 mM Na3VO4, 1 mM EDTA, 1 mM EGTA, 0.5% Triton X-100, 0.1 mM DTT, and protease inhibitor cocktail (Roche™). Cell extracts were incubated overnight with 1 μg of anti-mouse MyD88 antibody (AF3109) (R&D Systems™, followed by a 4-hour incubation with 20 μL protein G Sepharose beads (ThermoFisherm Scientific). The beads were then washed 3 times with 500 μL of lysis buffer and boiled in 60 μL of Laemmli sample buffer (Bio-Rad™). Cell extracts were electrophoresed on 10% acrylamide gel by SDS-PAGE and transferred to PVDF membrane (Bio-Rad™). Rabbit anti-MyD88 IgG was purchased from Cell Signaling™. Mouse anti-IRAK4 IgG was obtained from Abcam™. Alkaline phosphatase-conjugated secondary antibodies against mouse and rabbit IgG were purchased from Cell Signaling™. The stabilized substrate for alkaline phosphatase was from Promega™.
TLR stimulation causes formation of myDDosome, a signaling complex composed through interactions of IRAK and MyD88 death domains. To test if peptides inhibit myDDosome formation, MyD88 was immunoprecipitated from lysates of ODN-stimulated BMDM and the precipitates analyzed for IRAK4 presence. BMDM were lysed and lysates immunoprecipitated with anti-MyD88 Ab and immune complexes assessed with anti-IRAK4 Ab 3 hours after cell treatment with ODN 1668.

For a further data set, the system named is TLR4 signaling. In words: LPS-induced TNFα secretion in BMDM (ELISA). It is filed as cell-based, mouse. Particulars: peptide 20 or 40 μM; E. coli LPS 0.1 μg/mL; 5 hour BMDM supernatants. Here is the method: (§3) Mouse TNFα and IL-12-p40 concentrations were measured in supernatants using ELISA kits from Biolegend™, Inc.
BMDM were treated with 20 or 40 μM of 9R34 for 30 minutes prior to stimulation with E. coli LPS (0.1 μg/mL). TNFαconcentration in supernatants was evaluated by ELISA 5 hours after cell stimulation. See results in FIG. 9. Data represent means±SEM of three independent experiments.
(ELISA stands for enzyme-linked immunosorbent assay.)

Another data set relates to TLR9-induced lethality. In words: Survival of D-Gal pretreated mice after ODN 1668. It is filed as in vivo, C57Bl/6J mice. Particulars: ODN 1668 lower dose 3.93 nmol/mouse; peptide 200 nmol/mouse i.p. Here is the method: Systemic cytokine levels were measured in plasma samples obtained 1, 3, and 5 hours after intraperitoneal (i.p.) administration of 7.86 nmol (50 μg) of ODN 1668 or 67 nmol of Pam3C per mouse, using ELISA kits from Biolegend™ Inc. CPDP were dissolved in PBS and administered i.p. at the dose of 200 nmol per mouse 1 hour before administration of a TLR agonist. For survival experiments, mice were sensitized to TLR9 agonists by i.p. injection of 20 mg of D-Gal 30 minutes before administration of peptides or PBS. ODN 1668 was used at the doses of 3.93 or 7.86 nmol/mouse (25 or 50 μg/mouse) 1.5 hours after D-Gal. Animal survival was monitored for 50 hours. All agents were administered i.p. in 500 μL volume of PBS. Animals had free access to food and water during the observation period. All animal experiments were conducted in accordance with the national guidelines for the care and use of laboratory animals under a protocol that was approved by the UMB IACUC.
With the exception for LPS, administration of a purified TLR agonist is not lethal to mice. Mice, however, can be sensitized to TLR agonists by pretreatment with D-galactosamine (D-Gal). Survival of C57Bl/6J mice pretreated with D-galactosamine and challenged with different doses of ODN 1668 was tested. Mice were first administered with D-Gal intraperitoneally at the dose of 20 mg/mouse. Thirty minutes later mice were mock-treated with PBS or treated with a CPDP at the dose 200 nmol/mouse. ODN 1668 was administered 1 hour after peptide treatment at the dose of 3.93 or 7.86 nmol/mouse.

Data set [2] can be described thus: Stability and solubility of peptide solutions.
Data set [3] deals with TLR9 signaling. In words: ODN 1668-induced cytokine secretion in BMDM supernatants (ELISA). Particulars: 5 hour supernatants, ODN 1668 1 μM. It is filed as cell-based, mouse. As for the experimental part:
as §3
BMDMs were incubated in the presence of a decoy peptide for 30 minutes prior to stimulation with ODN 1668 (1 μM). The statistical significance of changes in cytokine levels was determined by the one-way ANOVA test; *p<0.01.

The next data set concerns TLR1/2 signaling. In words: TNFα mRNA in BMDM stimulated with Pam3C. It is filed as cell-based, mouse. Particulars: peptide 40 μM; P3C 0.33 μM; 1 h. Here is the method:
as §1, §2

The subject of data set [4] is TLR9 signaling. Briefly: ODN 1668-induced cytokine mRNA expression in BMDM (quantitative real time PCR). Format: cell-based, mouse. Here is the method: as §1
Mouse BMDMs were incubated in the presence of a 10, 20 or 40 μM decoy peptide for 30 minutes prior to stimulation with ODN 1668 (1 μM). […] Data represent the means±SEM of at least three independent experiments. The statistical significance of changes in cytokine mRNA was determined by a one-way ANOVA test; *p<0.001. Peptides 9R3 and 9R34 have overlapping sequences (see Table 1).
To investigate inhibition of TLR9 signaling by 9R34 analogues, the following work was performed. Mouse BMDMs were incubated in the presence of a 10, 20 or 40 μM decoy peptide for 30 minutes prior to stimulation with ODN 1668 (1 μM). Cytokine mRNA expression was measured 1 hour after ODN 1668 challenge and normalized to the expression of HPRT. See also Table 1. Data represent means±SEM of at least three independent experiments.
A general note: In qPCR the cycle at which signal appears reflects the starting amount.

Setting [5] is: BMDM, peptide 10, 20 or 40 μM 30 min before ODN 1668 (1 μM), 1 hour, normalized to HPRT.

“Also recorded” adds a separate entry of the source. No end group written: not given here.

Take “GRWALRLCLEERD (also: antennapedia vector attached) [Peptide 9R34, tested as CPDP with antennapedia vector]”: in the data set on TLR7 signaling, the “signaling induced by TLR7 agonist (TNFα mRNA)” value is on record as “did not inhibit”. In addition, the “TNFα/HPRT mRNA expression ratio with increased concentrations of agonistic ODN” value in the data set with TLR9 signaling [1] is on record as “efficient inhibition in a wider range of agonist concentrations”. For the same sequence, the “ODN 1668-induced myDDosome formation” value in the data set on myDDosome is “prevented ODN 1668-induced myDDosome formation”. In addition, the “LPS-induced TNFα secretion” value in the data set with TLR4 signaling is on record as “did not reduce”. For the same sequence, the “protection of D-Gal pretreated mice (survival)” value in the data set with TLR9-induced lethality was “full protection”. Besides, in data set [2], the “stability of millimolar stock solutions” value is “unstable” and the “stability of peptide solutions in the presence of high protein concentrations” value was “also unstable”. Further, the “secretion of IL-12-p40” value in the data set with TLR9 signaling [3] (peptide 20 μM) is listed as “also effective”. For the same sequence, in the data set on TLR9 signaling [3] (peptide 40 μM), the “production/secretion of TNFα” value is “decreased the production of TNFα” and the “secretion of IL-12-p40” value is listed as “reduced secretion”. In addition, the “signaling induced by TLR1/2 agonist (TNFα mRNA)” value in the data set with TLR1/2 signaling is “did not inhibit”. Moreover, the “TNFα mRNA expression” value in the data set with TLR9 signaling [4] (BMDM, peptide 10, 20 or 40 μM 30 min before ODN 1668 (1 μM), 1 hour after stimulation, normalized to HPRT) is “significantly suppressed”. In addition, in the data set with TLR9 signaling [4] (setting [5]), the “IL-10 mRNA expression” value was “significantly suppressed” and the “IL-12-p40 mRNA expression” value was “significantly suppressed”. Moreover, in the data set on TLR9 signaling [4] (BMDM, peptide 10, 20 or 40 μM, ODN 1668 1 μM), the “inhibition of TLR9 signaling (ODN 1668-induced cytokine mRNA, overall)” value is “most potent inhibitor; also recorded: inhibit TLR9 signaling; also recorded: inhibited TLR9 signaling more potently than 9R3”. Besides, the “expression of all tested cytokines at lower peptide concentrations” value with TLR9 signaling [4] (peptide 10 or 20 μM) was “inhibited expression of all tested cytokines”.

The record behind these values is patent US12084521B2, “TLR9 inhibitors to suppress inflammatory response to pathogens” (University Of Maryland, Baltimore, priority 2018, dated 2024).
